From patent US12497359B2, “Acrylamide derivatives” (NRG Therapeutics Ltd, priority 2020, dated 2025)

System: mPTP
Assay: mPTP human platelet mitochondria membrane potential flow cytometry assay
Type: cell-based
Details: stimulated human platelets
Procedure: The mPTP cell based assay was performed using a mitochondria membrane potential flow cytometry assay in stimulated human platelets. Simulation of platelets results in the rapid influx of Ca^2+ across the platelet membrane. The Ca^2+ is then sequestered by mitochondria until the threshold for mPTP opening is reached, at which point the pore opens and the mitochondrial membrane potential is dissipated. Changes in mitochondria membrane potential due to mPTP opening can be quantified in live platelets using standard mitochondrial membrane potential dyes e.g. 3,3′-dihexyloxacarbocyanine Iodide; DiOC6 (3), enabling pharmacological characterisation of mPTP inhibitors.
Fresh human blood (20 ml) was collected from consented donors into 3.2% sodium citrate. Platelets were isolated by centrifugation at 200 g for 20 min at room temperature, then the platelet rich plasma layer transferred to a fresh tube. Prostaglandin 12 is added to the platelets at a final concentration of 20 ng/ml. After centrifugation at 640 g for 10 min, the platelet rich pellet was resuspended in 4 ml HEPES assay buffer (137 mM NaCl, 2.7 mM KCl, 11.9 mM NaHCO3, 0.42 mM NaH2PO4, 1 mM MgCl2, 5.5 mM glucose, 0.1% bovine serum albumin, 10 mM HEPES adjusted to pH 7.4) and stored on ice.
Test compounds were prepared from 10 mM stocks in DMSO and serially diluted in assay buffer containing 0.4% DMSO and 25 μl transferred into a 96 well plate. Platelets were loaded with the mitochondrial membrane potential dye DiOC6 (3) (3,3′-dihexyloxacarbocyanine Iodide; Invitrogen) at 200 nM for 30 min, then 50 μl plated into each well of the 96 well plate containing diluted test compound and incubated for 15 min. Control wells included DMSO (0.1% final concentration) only or 5 μM cyclosporin A. Platelets were then stimulation with the addition of assay buffer (25 μl) containing CaCl2, alpha thrombin and Convulxin to achieve a final concentrations of 2 mM, 0.017 U/ml and 0.167 μg/ml respectively and incubated for 14 min. The reaction was stopped by the addition of 25 μl 15 mM EDTA in assay buffer. The mitochondrial membrane potential across the population of platelets in each well was then quantified by flow cytometry using a Guava easyCyte 5 Benchtop Flow Cytometer with 3000 events per well. The percentage of platelets with a depolarised mitochondrial membrane potential was calculated for each well. A pIC50 for each compound was then calculated using a standard four parameter curve fit model (GraphPad Prism).

Structure (SMILES): O=C(/C=C/c1ccc2cn[nH]c2c1)N[C@@H]1CCc2ccccc21 [Example 3, (R,E)-N-(2,3-dihydro-1H-inden-1-yl)-3-(1H-indazol-6-yl)acrylamide]
- mPTP Human platelets pIC50: 7.3

Structure (SMILES): C[C@H]1Cc2ccccc2[C@@H]1NC(=O)/C=C/c1ccc2cn[nH]c2c1 (single isomer, unassigned) [Example 14c]
- mPTP Human platelets pIC50: 6.8
